Read-outs that look alike come from different tables or passages of the source.
Legend:
[1] = target: Cys242 in human PIK3CA (157-299) (Homo sapiens (Human), UniProt P42336); assay: Covalent modification assay using MALDI-TOF MS; type: biochemical; conditions: 4 h reaction time point
In short: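 PIK3CA (157-299) at 3.33 μM or 1 μM in 20 mM HEPES, 150 mM NaCl, 2 mM MgCl2, pH 7.3 was incubated with compound (from 10 mM DMSO stocks) in the dark at room temperature for 15 min, 30 min, 2 h or 4 h. Linear-mode MALDI-TOF peak heights gave percent modification.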

pAKT in BT474 cells = assay: Cell-based pAKT HTRF assay in BT474 cells; conditions: BT474 cells, 4 hr incubation, read-out: pAKT inhibition IC50 in BT474 cells
In short: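 Treatment lasts 4 hr in DMEM/10% FBS at 0.25% DMSO over nine 3-fold dilutions from 3 μM. The lysate is then probed by HTRF.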

[2] = 1 μM protein target, 1:5 protein to compound ratio (compounds 853-1279)
[3] = 3.33 μM protein target, 1:7.5 protein to compound ratio (compounds 1-852)
[4] = Homo sapiens, BT-474, Compounds 10-999

Chain of Cys242 in human PIK3CA (157-299) (P42336 157-299): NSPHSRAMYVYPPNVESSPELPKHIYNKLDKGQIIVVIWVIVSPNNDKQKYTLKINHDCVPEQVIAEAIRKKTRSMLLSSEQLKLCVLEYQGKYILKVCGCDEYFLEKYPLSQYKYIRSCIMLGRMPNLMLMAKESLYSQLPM

Row | SMILES | % of modification [1, 2] | IC50 (pAKT in BT474 cells; Compounds 10-999) [µM] | % of modification [1, 3] | IC50 (pAKT in BT474 cells; Compounds 1000-1279) [µM] | IC50 (pAKT in BT474 cells; [4]) [µM]
1 | C=CC(=O)N1CCn2nc(-c3nc(-c4cnc5c(c4)CN(C)CC5)c4ccsc4c3-c3c(F)cc(F)cc3OCCOC)cc2C1C (stereo not shown) [Compound 929] | A (percent of modification of PIK3CA protein ≥75%) | < 0.1 |  |  | 
2 | C=CC(=O)N1Cc2cc(-c3nc(-c4ccc5c(c4)CCS5(=O)=O)c4ccsc4c3-c3c(F)cc(F)cc3OCCOC)nn2C[C@H]1C [Compound 794] |  | > 3 | A (percent of modification of PIK3CA protein ≥75%) |  | 
3 | C=CC(=O)N1CCc2ncc(-c3nc(-c4ccc5c(c4)CN(C)C5=O)c4ccsc4c3-c3c(F)cc(F)cc3OC(C)C)cc2C1 [Compound 407] |  | < 0.1 | A (percent of modification of PIK3CA protein ≥75%) |  | 
4 | C=CC(=O)N1Cc2cc(-c3nc(-c4ccc5c(c4)CCN(C)C5)c4ccsc4c3-c3c(F)cc(F)cc3OC)nn2C(C)C1 (stereo not shown) [Compound 484] |  | < 0.1 | A (percent of modification of PIK3CA protein ≥75%) |  | 
5 | C=CC(=O)N1CCC(n2cc(-c3nc(-c4ccc5c(c4)CCNC5)c4ccsc4c3-c3ccc(F)cc3OCCOC)ccc2=O)CC1 [Compound 181] |  | 0.1 to 1 | A (percent of modification of PIK3CA protein ≥75%) |  | 
6 | C=CC(=O)N1CCn2nc(-c3nc(C4CCN(C(C)C)CC4)c4ccsc4c3-c3ccc(F)cc3OCCOC)cc2C1 [Compound 220] |  | < 0.1 | A (percent of modification of PIK3CA protein ≥75%) |  | 
7 | C=CC(=O)N1CCn2nc(-c3nc(-c4cnc5c(c4)CN(C)CC5)c4ccsc4c3-c3c(F)cc(F)cc3OC)cc2[C@H]1C (single isomer, unassigned) [Compound 1147] | A (percent of modification of PIK3CA protein ≥75%) |  |  | < 0.1 | 
8 | C=CC(=O)N1Cc2cc(-c3nc(-c4cnc5c(c4)CNC5=O)c4ccsc4c3-c3c(F)cc(F)cc3OCCOC)nn2CC1C (stereo not shown) [Compound 554] |  | < 0.1 | A (percent of modification of PIK3CA protein ≥75%) |  | 
9 | C=CC(=O)N1CCn2nc(-c3nc(-c4cnn(C)c4)c4ccsc4c3-c3c(F)cc(F)cc3OC[C@@H](C)O)cc2[C@H]1C [Compound 753] |  | < 0.1 | A (percent of modification of PIK3CA protein ≥75%) |  | 
10 | C=CC(=O)N1CCn2nc(-c3nc(-c4cnn(C)c4)c4ccsc4c3-c3ccc(F)cc3OCC3CCNC(=O)C3)cc2C1 (stereo not shown) [Compound 212] |  | < 0.1 | A (percent of modification of PIK3CA protein ≥75%) |  | 
11 | C=CC(=O)N1CCc2ccc(-c3nc(-c4ccc5c(c4)CN(CCO)CC5(F)F)c4ccsc4c3-c3c(F)cc(F)cc3OCCOC)cc2C1 [Compound 1273] | D (percent of modification <25%) |  |  | > 1 | 
12 | C=CC(=O)N1CCn2nc(-c3nc(-c4ccc5c(c4)CNC(=O)C54CC4)c4ccsc4c3-c3c(F)cc(F)cc3OCCO)cc2C1C (stereo not shown) [Compound 1119] | A (percent of modification of PIK3CA protein ≥75%) |  |  | < 0.1 | 
13 | C=CC(=O)N1Cc2cc(-c3nc(-c4ccc5cn(C)nc5c4)c4ccsc4c3-c3c(F)cc(F)cc3OCCOC)nn2C[C@H]1C [Compound 737] |  | < 0.1 | A (percent of modification of PIK3CA protein ≥75%) |  | 
14 | C=CC(=O)N1CCn2nc(-c3nc(-c4cc(F)c(=O)n(CC(F)F)c4)c4ccsc4c3-c3c(F)cc(F)cc3OCCOC)cc2C1C (stereo not shown) [Compound 1036] | A (percent of modification of PIK3CA protein ≥75%) |  |  | < 0.1 | 
15 | C=CC(=O)N1CCc2ccc(-c3nc(-c4cnc(N(C)C)nc4)c4ccsc4c3-c3c(F)cc(F)cc3OCCOC)cc2C1 [Compound 1068] | D (percent of modification <25%) |  |  | > 1 | 
16 | C=CC(=O)N1CCn2nc(-c3nc(-c4ccc5cnncc5c4)c4ccsc4c3-c3c(F)cc(F)cc3OCCO)cc2C1C (stereo not shown) [Compound 660] |  | 0.1 to 1 | C (25%≤percent of modification <50%) |  | 

Row | SMILES | % of modification [1, 2] | IC50 (pAKT in BT474 cells; Compounds 10-999) [µM] | % of modification [1, 3] | IC50 (pAKT in BT474 cells; Compounds 1000-1279) [µM] | IC50 (pAKT in BT474 cells; [4]) [µM]
17 | C=CC(=O)N1CCc2cc(-c3nc(-c4ccc5cn(C)nc5c4)c4ccsc4c3-c3c(F)cc(F)cc3OCCO)nn2CC1 [Compound 1210] | A (percent of modification of PIK3CA protein ≥75%) |  |  | < 0.1 | 
18 | C=CC(=O)N1CCn2nc(-c3nc(-c4ccc(OC5CN(C)C5)cc4)c4ccsc4c3-c3c(F)cc(F)cc3OCCO)cc2C1C (stereo not shown) [Compound 1198] | A (percent of modification of PIK3CA protein ≥75%) |  |  | < 0.1 | 
19 | C=CC(=O)N1CCn2nc(-c3nc(-c4ccc5ncn(C)c5c4)c4ccsc4c3-c3c(F)cc(F)cc3OCCOC)cc2C1C (stereo not shown) [Compound 552] |  | < 0.1 | A (percent of modification of PIK3CA protein ≥75%) |  | 
20 | C=CC(=O)N1CC(n2cc(-c3nc(N4CC5(CCNCC5)CC4=O)c4ccsc4c3-c3ccc(F)cc3OCCOC)cn2)C1 [Compound 106] |  | > 3 | C (25%≤percent of modification <50%) |  | 
21 | C=CC(=O)N1CCn2nc(-c3nc(-c4ccc5c(c4)CCN(C(C)C)C5)c4ccsc4c3-c3ccc(F)cc3OCCOC)cc2C1 [Compound 190, 1-[2-[7-[4-fluoro-2-(2-methoxyethoxy)phenyl]-4-(2-isopropyl-3,4-dihydro-1H-isoquinolin-6-yl)thieno[3,2-c]pyridin-6-yl]-6,7-dihydro-4H-pyrazolo[1,5-a]pyrazin-5-yl]prop-2-en-1-one] |  |  | A (percent of modification of PIK3CA protein ≥75%) |  | < 0.1
22 | C=CC(=O)N1CCn2nc(-c3nc(-c4ccc5c(c4)C(=O)NCC5)c4ccsc4c3-c3c(F)cc(F)cc3OCCOC)cc2[C@H]1C [Compound 956] | A (percent of modification of PIK3CA protein ≥75%) | < 0.1 |  |  | 
23 | C=C(F)C(=O)N1CCn2nc(-c3nc(-c4ccc5c(c4)CCN(C)C5)c4ccsc4c3-c3c(F)cc(F)cc3OCC(C)O)cc2C1 (stereo not shown) [Compound 527] |  | 0.1 to 1 | B (50%<percent of modification <75%) |  | 
24 | C=CC(=O)N1CCc2ccc(-c3nc(-c4ccc5c(c4)C(=O)NC5)c4ccsc4c3-c3c(F)cc(F)cc3OCCOC)cc2C1 [Compound 1067] | D (percent of modification <25%) |  |  | > 1 | 
25 | C=CC(=O)N1CCn2nc(-c3nc(-c4ccc5cnn(C)c(=O)c5c4)c4ccsc4c3-c3c(F)cc(F)cc3OCCOC)cc2C1C (stereo not shown) [Compound 928] | A (percent of modification of PIK3CA protein ≥75%) | < 0.1 |  |  | 
26 | C=CC(=O)N1CC[C@H](n2cc(-c3nc(-c4ccc5c(c4)CNC5=O)c4ccsc4c3-c3c(F)cc(F)cc3OC(C)C)cn2)C1 [Compound 334, 5-[7-(2,4-difluoro-6-isopropoxy-phenyl)-6-[1-[(3S)-1-prop-2-enoylpyrrolidin-3-yl]pyrazol-4-yl]thieno[3,2-c]pyridin-4-yl]isoindolin-1-one] |  |  | A (percent of modification of PIK3CA protein ≥75%) |  | < 0.1
27 | C=CC(=O)N1CCn2nc(-c3nc(-c4ccc5c(c4)CCN(C(C)C)C5)c4ccsc4c3-c3ccc(F)cc3OC(F)F)nc2C1 [Compound 218] |  | < 0.1 | A (percent of modification of PIK3CA protein ≥75%) |  | 
28 | C=CC(=O)N1Cc2cc(-c3nc(-n4cnc(C)c4)c4ccsc4c3-c3c(F)cc(F)cc3OCCOC)nn2C[C@H]1C [Compound 824] |  | < 0.1 | A (percent of modification of PIK3CA protein ≥75%) |  | 
29 | C=CC(=O)N1Cc2cc(-c3nc(-c4ccc5nn(C)cc5c4)c4ccsc4c3-c3c(F)cc(F)cc3OC[C@@H](C)O)nn2[C@@H](C)C1 [Compound 572, 1-((S)-2-((S)-7-(2,4-difluoro-6-((R)-2-hydroxypropoxy)phenyl)-4-(2-methyl-2H-indazol-5-yl)thieno[3,2-c]pyridin-6-yl)-7-methyl-6,7-dihydropyrazolo[1,5-a]pyrazin-5(4H)-yl)prop-2-en-1-one] |  | < 0.1 | A (percent of modification of PIK3CA protein ≥75%) |  | 
30 | C=CC(=O)N1CCn2nc(-c3nc(-c4ccc(CN5CC(F)(F)C5)nc4)c4ccsc4c3-c3c(F)cc(F)cc3OCCOC)cc2[C@H]1C [Compound 529] |  | < 0.1 | A (percent of modification of PIK3CA protein ≥75%) |  | 
31 | C=CC(=O)N1Cc2cc(-c3nc(-c4ccc5c(c4)CCN(C)C5)c4ccsc4c3-c3c(F)cc(F)cc3OC[C@@H](C)O)nn2C[C@H]1C [Compound 606] |  | 1 to 3 | D (percent of modification <25%) |  | 
32 | C=CC(=O)N1Cc2cc(-c3nc(-c4ccc5c(c4)CCN(C)C5)c4ccsc4c3-c3c(F)cc(F)cc3OC)nn2[C@@H](C)C1 [Compound 563] |  | < 0.1 | A (percent of modification of PIK3CA protein ≥75%) |  | 

From patent US20250230138A1, “COMPOUNDS HAVING A T-STRUCTURE FORMED BY AT LEAST FOUR CYCLES FOR USE IN THE TREATMENT OF CANCER AND OTHER INDICATIONS” (TheRas, Inc., priority 2022, published 2025)
